Test results reported in PubChem BioAssay (NCI).
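These data come from cells grown in 96-well plates and exposed to compound for 48 hours at five concentrations. At the TGI there is no net growth.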

Tests used:
Experiment in all cases: NCI anticancer screen, dose series, 48 h
[1] = tested on: CAKI-1 renal
[2] = tested on: OVCAR-4 ovarian
[3] = tested on: LOX IMVI melanoma
[4] = tested on: K-562 leukemia
[5] = tested on: MDA-MB-231 breast
[6] = tested on: EKVX NSCLC
[7] = tested on: SF-539 CNS
[8] = tested on: T-47D breast
[9] = tested on: M14 melanoma
[10] = tested on: BT-549 breast
[11] = tested on: IGROV1 ovarian
[12] = tested on: HL-60(TB) leukemia
[13] = tested on: OVCAR-8 ovarian
[14] = tested on: SK-MEL-2 melanoma
[15] = tested on: UACC-257 melanoma
[16] = tested on: SK-MEL-28 melanoma
[17] = tested on: MCF7 breast
[18] = tested on: OVCAR-3 ovarian
[19] = tested on: UACC-62 melanoma
[20] = tested on: U251 CNS
[21] = tested on: HCT-116 colon
[22] = tested on: HS 578T breast
[23] = tested on: KM12 colon
[24] = tested on: PC-3 prostate
[25] = tested on: NCI-H522 lung
[26] = tested on: SK-OV-3 ovarian
[27] = tested on: UO-31 renal
[28] = tested on: A498 renal
[29] = tested on: NCI/ADR-RES ovarian
[30] = tested on: NCI-H226 lung
[31] = tested on: OVCAR-5 ovarian
[32] = tested on: SF-295 CNS
[33] = tested on: SN12C renal
[34] = tested on: MDA-MB-435
[35] = tested on: A549 NSCLC
[36] = tested on: NCI-H460 lung
[37] = tested on: RPMI-8226 leukemia
[38] = tested on: TK-10 renal
[39] = tested on: SNB-75 CNS
[40] = tested on: 786-0 renal
[41] = tested on: HOP-92 NSCLC
[42] = tested on: SF-268 CNS
[43] = tested on: SW-620 colon
[44] = tested on: SK-MEL-5 melanoma
[45] = tested on: RXF 393 renal
[46] = tested on: MDA-N
[47] = tested on: ACHN renal
[48] = tested on: MALME-3M melanoma
[49] = tested on: HCT-15 colon
[50] = tested on: HOP-62 NSCLC
[51] = tested on: NCI-H23 lung
[52] = tested on: HT29 colon
[53] = tested on: COLO 205 colon
[54] = tested on: MOLT-4 leukemia
[55] = tested on: SNB-19 CNS
[56] = tested on: SR leukemia
[57] = tested on: HCC-2998 colon
[58] = tested on: DU-145 prostate
[59] = tested on: CCRF-CEM leukemia

In the case of COC(=O)C(=O)C(C(=O)C(=O)Nc1ccccc1C(=O)OC)c1nc2ccc(C(=O)c3ccccc3)cc2[nH]c1=O (stereo unspecified), the TGI [1] is reported as > 100 µM, the TGI [2] is reported as 88.8 µM and the TGI [3] is reported as > 100 µM. The TGI [4] was > 100 µM, the TGI [5] was > 100 µM and the TGI [6] was > 100 µM. The TGI [7] was > 100 µM, the TGI [8] was > 100 µM and the TGI [9] was > 100 µM. For the same compound, the TGI [10] was > 100 µM, the TGI [11] was > 100 µM and the TGI [12] was > 100 µM. The TGI [13] was > 100 µM, the TGI [14] was > 100 µM and the TGI [15] was > 100 µM. The TGI [16] was > 100 µM, the TGI [17] was > 100 µM and the TGI [18] was > 100 µM. For the same compound, the TGI [19] was > 100 µM, the TGI [20] was > 100 µM and the TGI [21] was > 100 µM. For the same compound, the TGI [22] was > 100 µM, the TGI [23] was > 100 µM and the TGI [24] was > 100 µM. For the same compound, the TGI [25] was > 100 µM, the TGI [26] was > 100 µM and the TGI [27] was > 100 µM. For the same compound, the TGI [28] was > 100 µM, the TGI [29] was > 100 µM and the TGI [30] was > 100 µM. The TGI [31] was > 100 µM, the TGI [32] was > 100 µM and the TGI [33] was > 100 µM. For the same compound, the TGI [34] was > 100 µM, the TGI [35] was > 100 µM and the TGI [36] was > 100 µM. For the same compound, the TGI [37] was > 100 µM, the TGI [38] was > 100 µM and the TGI [39] was > 100 µM. The TGI [40] was > 100 µM, the TGI [41] was > 100 µM and the TGI [42] was > 100 µM. For the same compound, the TGI [43] was > 100 µM, the TGI [44] was > 100 µM and the TGI [45] was > 100 µM. For the same compound, the TGI [46] was > 100 µM, the TGI [47] was > 100 µM and the TGI [48] was > 100 µM. For the same compound, the TGI [49] was > 100 µM, the TGI [50] was > 100 µM and the TGI [51] was > 100 µM. For the same compound, the TGI [52] was > 100 µM.
For O=C1Nc2ccccc2C(=O)OC(Cc2ccccc2)=Nc2ccccc21, the TGI [1] was > 100 µM, the TGI [2] was > 100 µM and the TGI [3] was > 100 µM. For the same compound, the TGI [4] was > 100 µM, the TGI [6] was > 100 µM and the TGI [7] was > 100 µM. For the same compound, the TGI [8] was > 100 µM, the TGI [9] was > 100 µM and the TGI [10] was > 100 µM. For the same compound, the TGI [11] was > 100 µM, the TGI [12] was > 100 µM and the TGI [13] was > 100 µM. For the same compound, the TGI [14] was > 100 µM, the TGI [53] was > 100 µM and the TGI [15] was > 100 µM. The TGI [16] was > 100 µM, the TGI [17] was > 100 µM and the TGI [18] was > 100 µM. For the same compound, the TGI [19] was > 100 µM, the TGI [20] was > 100 µM and the TGI [21] was > 100 µM. For the same compound, the TGI [23] was > 100 µM, the TGI [24] was > 100 µM and the TGI [25] was > 100 µM. The TGI [54] was > 100 µM, the TGI [55] was > 100 µM and the TGI [56] was > 100 µM. For the same compound, the TGI [26] was > 100 µM, the TGI [27] was > 100 µM and the TGI [29] was > 100 µM. The TGI [30] was > 100 µM, the TGI [31] was > 100 µM and the TGI [57] was > 100 µM. For the same compound, the TGI [32] was > 100 µM, the TGI [33] was > 100 µM and the TGI [34] was > 100 µM. The TGI [35] was > 100 µM, the TGI [36] was > 100 µM and the TGI [37] was > 100 µM. The TGI [38] was > 100 µM, the TGI [39] was > 100 µM and the TGI [40] was > 100 µM. The TGI [58] was > 100 µM, the TGI [42] was > 100 µM and the TGI [43] was > 100 µM. The TGI [44] was > 100 µM, the TGI [59] was > 100 µM and the TGI [45] was > 100 µM. For the same compound, the TGI [46] was > 100 µM, the TGI [47] was > 100 µM and the TGI [49] was > 100 µM. The TGI [50] was > 100 µM, the TGI [51] was > 100 µM and the TGI [52] was > 100 µM.
